Literature values in article PMC6698139 (Bioorganic & medicinal chemistry, 2019).

Tested on: S1PR2
Details: [33P]S1P competitive binding assay

In the case of `Cc1cc(C(=O)Cn2cc(C#N)ccc2=O)c(C)n1Cc1ccccc1` [CYM-5520], the “competition with S1P” value is given as “not competitive”.
